Assay [1] deals with T. rubrum NCPF0118. Put plainly: In vitro MIC100 testing. It is filed as cell-based, Trichophyton rubrum. The note with it: versus T. rubrum NCPF0118; revealed in separate tests.
The test system of assay [2] is Trichophyton rubrum strain NCPF0118. In words: Ex vivo human nail fragment model, treatment of established infection (cfu recovered). It is filed as cell-based. How it is done:
For antifungal efficacy studies with human toe nails, a solution of 50% (w/v) PEG 8000 (Sigma-Aldrich; Cat No P2139) was prepared by autoclaving and then diluting with sterile 50% (w/v) urea solution (Sigma-Aldrich; Cat No 51457). This solution was mixed thoroughly by vortexing and allowed to stabilise at 50° C. for up to 2 h. After stabilisation, the temperature was allowed to drop to below 40° C. and a concentrated, filter-sterilised solution of Novexatin® (NP213), dissolved in deionised water was added. Final concentrations of PEG 8000 of 50% (w/v), urea of 0-20% (w/v) and Novexatin® (NP213) of 0-10% (w/v) were used in the experiments described below.
On arrival, the cultures were transferred to a Petri dish containing sterile Sabouraud Dextrose agar (Sigma-Aldrich; Cat No 84088, or equivalent) and grown for up to 7 d at 30° C. The resulting growth was scraped off and re-suspended in Sabouraud's liquid medium (Oxoid; Cat No CM 147, or equivalent) containing […] dimethyl sulfoxide (DMSO) as cryoprotectant to create a culture stock. The fungus was stored in 0.5 ml aliquots in 2 ml screw-capped polypropylene vials (Cryovials) at −80° C. Seven days prior to experimental use, 50 μl of the culture stock was used to inoculate a slope of Potato Dextrose agar (Merck; Cat No VM556130 609, or equivalent), which was incubated at 30° C. for up to 7 d. The surface of the resulting growth was gently perturbed in 3 ml of sterile distilled/deionised water. After filtration through 2 layers of sterile surgical gauze to remove debris and larger clumps of biomass, the absorbance of the resultant spore suspension was measured at 530 nm, then adjusted to the 0.5 MacFarland standard (OD approx. 0.15)^2.
Human toe nails were obtained from a podiatrist in Aberdeen following a successful application to the Grampian Local Research Ethics Committee. […] Large toe nails were cut into 4 pieces, each approximately 1 cm^2 in area, using nail clippers. Nails of normal thickness (≦2 mm) were chosen. The 4 fragments cut from each single nail were placed in quadrants marked on Petri-dishes containing phosphate buffered saline rendered solid with 1.2% (w/v) Technical Agar No. 3 (Oxoid; Cat No LP0013, or equivalent), subsequently referred to as PBS agar. The nail fragments were of irregular shape, so to ensure that each nail received the appropriate amount of the treatment solutions, the surface area was measured by photographing the nails over graph paper and determining the number of 1mm^2 squares covered by each nail. The thickness of the nails was measured with a micrometer and nails distributed among treatment groups, to avoid nail thickness providing an additional experimental variable.
Twenty four nail fragments from 6 whole large toenails were each inoculated with 10 μl of a spore suspension of T. rubrum NCPF0118 which was prepared as described above. The inoculum was applied to the ventral side of the nail (i.e. the side next to the skin in situ). The nails were incubated for 7 d at 30° C. to allow the fungus to infect the nail tissue. After this pre-incubation period, 12 of the fragments were assigned to each of 2 different treatment protocols, involving daily treatment with 2 different vehicle solutions, each containing a control and 3 different concentrations of Novexatin® (NP213). These vehicle solutions were: 50% (w/v) PEG 8000, and 50% (w/v) PEG 8000 plus 20% (w/v) urea. The concentrations of Novexatin® (NP213) studied were 0%, 1%, 5% and 10% (w/v). The solutions were applied at a volume of 10 μl/cm^2, corrected for the surface area of the different nail fragments as described above. The applied solution was spread over the dorsal side of the nail, to mimic the intended clinical treatment and the ventral side of the nail rested on the agar surface. Each time the nails were treated, they were transferred to a new sterile Petri dish containing PBS agar to minimise any build-up of fungal growth on the agar. Nail fragments were treated daily for 28 days. […]

Where [3] appears, read: Experiment 1, 5% (w/v), absence of urea, daily 28 days.

For the substance “7 to 200-mer (SEQ ID NO: 3) polyarginine [Novexatin® (NP213)]”, the “concentration equal to 100× the MIC100” value in assay [1] is ~10 % (w/v). Moreover, the “killing of T. rubrum NCPF0118 on nail fragments (dose dependence)” value in assay [2] (Experiment 1, 0%, 1%, 5%, 10% (w/v) in 50% PEG 8000 with or without 20% urea, daily for 28 days) was “dose-dependent”. In addition, the “reduction in fungal survival” value in assay [2] (Experiment 1, 1% (w/v), daily 28 days) is “approximately 1 log10”. In addition, the “fungi isolated with 20% (w/v) urea added to the vehicle, versus vehicle alone” value in assay [2] (Experiment 1, 1% (w/v), not statistically significant) was “fewer fungi than in vehicle alone”. Also, in assay [2] (Experiment 1, 5% (w/v) with 20% (w/v) urea in vehicle, daily 28 days), the “fungal colonies isolated from nail fragments” value is on record as “no colonies were isolated”. Moreover, in assay [2] (setting [3]), the “decrease in survival of the fungus compared to controls” value is recorded as “approximately 3 log10” and the “fungal colonies isolated from nail fragments” value is “a small number of colonies were detected”. Besides, the “recoverable fungal growth after treatment” value in assay [2] (Experiment 5, 10% (w/v), approximately 100×MIC100, 14 d or 28 d, daily) is given as “no recoverable fungal growth”.

Source of the values: patent publication US20130109049A1, “Method of Establishing a Fungal Nail Infection” (NOVABIOTICS LIMITED, priority 2009, published 2013).
